Article PMC9005681, “Use of AD Informer Set compounds to explore validity of novel targets in Alzheimer's disease pathology” (Alzheimer's & Dementia : Translational Research & Clinical …, 2022)

Columns and labels:
Assay in all cases: PDSP GPCR panel primary binding assays at 10 μM
[1] = biological target: T1, cloned human or rodent CNS receptors, channels, and transporters (PDSP panel) (Homo sapiens, UniProt P08908); conditions: Receptor 5-HT1A, primary assay, 10 μM
T1 construct: expressed in transfected cells
T1 sequence (P08908 1-422): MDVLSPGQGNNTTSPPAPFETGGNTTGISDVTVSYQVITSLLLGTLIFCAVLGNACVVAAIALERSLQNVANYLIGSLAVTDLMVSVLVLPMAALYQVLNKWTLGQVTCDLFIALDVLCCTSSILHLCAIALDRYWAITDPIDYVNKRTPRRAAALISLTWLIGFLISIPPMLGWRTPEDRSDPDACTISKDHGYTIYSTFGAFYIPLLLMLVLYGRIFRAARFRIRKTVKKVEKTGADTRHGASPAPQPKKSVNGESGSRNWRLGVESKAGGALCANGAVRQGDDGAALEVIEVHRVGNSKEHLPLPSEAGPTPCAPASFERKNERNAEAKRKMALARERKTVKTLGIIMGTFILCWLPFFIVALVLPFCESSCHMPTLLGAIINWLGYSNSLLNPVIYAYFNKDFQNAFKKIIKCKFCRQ
In short: (§1)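 Radioligand displacement at cloned human or rodent CNS targets: 46–47 primary binding assays run in quadruplicate at 10 μM. Targets where the compound displaced an average of >50% of radiolabeled standard ligand went to secondary binding in 11-point dose-response, in triplicate; none run for H3, PBR or GABAA.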

[2] = biological target: T2, cloned human or rodent CNS receptors, channels, and transporters (PDSP panel) (Homo sapiens, UniProt P11229); conditions: Receptor M1, primary assay, 10 μM
T2 construct: expressed in transfected cells
T2 sequence (P11229 1-460): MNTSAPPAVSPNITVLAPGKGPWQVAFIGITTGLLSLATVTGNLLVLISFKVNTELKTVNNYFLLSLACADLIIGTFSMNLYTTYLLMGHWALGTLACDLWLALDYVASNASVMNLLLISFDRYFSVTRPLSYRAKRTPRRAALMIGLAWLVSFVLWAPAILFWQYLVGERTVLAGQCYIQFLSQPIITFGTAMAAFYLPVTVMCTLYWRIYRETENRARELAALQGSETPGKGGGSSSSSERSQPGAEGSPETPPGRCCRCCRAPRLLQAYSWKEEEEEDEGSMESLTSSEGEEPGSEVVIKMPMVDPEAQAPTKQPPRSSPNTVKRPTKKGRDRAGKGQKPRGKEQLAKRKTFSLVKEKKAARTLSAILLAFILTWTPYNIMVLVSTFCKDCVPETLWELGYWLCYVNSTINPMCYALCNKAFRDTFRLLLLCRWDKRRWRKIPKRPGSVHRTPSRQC
In short: as §1

[3] = biological target: T3, cloned human or rodent CNS receptors, channels, and transporters (PDSP panel) (Homo sapiens, UniProt P20309); conditions: Receptor M3, primary assay, 10 μM
T3 construct: expressed in transfected cells
In short: as §1

[4] = biological target: T4, cloned human or rodent CNS receptors, channels, and transporters (PDSP panel) (Homo sapiens, UniProt P25021); conditions: Receptor H2, primary assay, 10 μM
T4 construct: expressed in transfected cells
In short: as §1

[5] = biological target: T5, cloned human or rodent CNS receptors, channels, and transporters (PDSP panel) (Homo sapiens, UniProt P28222); conditions: Receptor 5-HT1B, primary assay, 10 μM
T5 construct: expressed in transfected cells
In short: as §1

[6] = biological target: T6, cloned human or rodent CNS receptors, channels, and transporters (PDSP panel) (Homo sapiens, UniProt P34969); conditions: Receptor 5-HT7A, primary assay, 10 μM
T6 construct: expressed in transfected cells
In short: as §1

[7] = biological target: T7, cloned human or rodent CNS receptors, channels, and transporters (PDSP panel) (Homo sapiens, UniProt P35367); conditions: Receptor H1, primary assay, 10 μM
T7 construct: expressed in transfected cells
In short: as §1

[8] = biological target: T8, cloned human or rodent CNS receptors, channels, and transporters (PDSP panel) (Homo sapiens, UniProt P46098); conditions: Receptor 5-HT3, primary assay, 10 μM
T8 construct: expressed in transfected cells
T8 sequence (P46098 24-478): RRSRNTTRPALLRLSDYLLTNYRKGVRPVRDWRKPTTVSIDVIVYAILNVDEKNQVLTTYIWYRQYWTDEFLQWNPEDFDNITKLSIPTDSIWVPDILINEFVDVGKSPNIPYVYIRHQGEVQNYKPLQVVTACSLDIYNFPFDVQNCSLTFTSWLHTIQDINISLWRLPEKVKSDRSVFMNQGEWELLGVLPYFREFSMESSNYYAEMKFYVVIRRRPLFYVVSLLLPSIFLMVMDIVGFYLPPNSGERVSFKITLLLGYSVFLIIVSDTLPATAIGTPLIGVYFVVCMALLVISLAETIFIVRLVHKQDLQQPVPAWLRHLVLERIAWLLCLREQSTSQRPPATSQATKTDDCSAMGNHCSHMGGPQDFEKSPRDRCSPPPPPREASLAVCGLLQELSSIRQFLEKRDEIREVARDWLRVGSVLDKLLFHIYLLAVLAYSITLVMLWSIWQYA
In short: as §1

[9] = biological target: T9, cloned human or rodent CNS receptors, channels, and transporters (PDSP panel) (Homo sapiens, UniProt Q01959); conditions: Receptor DAT, primary assay, 10 μM
T9 construct: expressed in transfected cells
In short: as §1

T4 sequence (P25021 whole entry): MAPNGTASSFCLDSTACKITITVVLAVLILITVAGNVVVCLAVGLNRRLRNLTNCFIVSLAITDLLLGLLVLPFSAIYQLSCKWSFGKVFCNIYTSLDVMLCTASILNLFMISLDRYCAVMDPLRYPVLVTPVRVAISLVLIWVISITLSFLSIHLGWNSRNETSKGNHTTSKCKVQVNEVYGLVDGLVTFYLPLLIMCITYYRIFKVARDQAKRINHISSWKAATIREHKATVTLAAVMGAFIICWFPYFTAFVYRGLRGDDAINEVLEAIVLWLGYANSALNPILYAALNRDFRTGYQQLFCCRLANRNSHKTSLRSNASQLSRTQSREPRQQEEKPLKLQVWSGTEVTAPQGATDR
T3 sequence (P20309 whole entry): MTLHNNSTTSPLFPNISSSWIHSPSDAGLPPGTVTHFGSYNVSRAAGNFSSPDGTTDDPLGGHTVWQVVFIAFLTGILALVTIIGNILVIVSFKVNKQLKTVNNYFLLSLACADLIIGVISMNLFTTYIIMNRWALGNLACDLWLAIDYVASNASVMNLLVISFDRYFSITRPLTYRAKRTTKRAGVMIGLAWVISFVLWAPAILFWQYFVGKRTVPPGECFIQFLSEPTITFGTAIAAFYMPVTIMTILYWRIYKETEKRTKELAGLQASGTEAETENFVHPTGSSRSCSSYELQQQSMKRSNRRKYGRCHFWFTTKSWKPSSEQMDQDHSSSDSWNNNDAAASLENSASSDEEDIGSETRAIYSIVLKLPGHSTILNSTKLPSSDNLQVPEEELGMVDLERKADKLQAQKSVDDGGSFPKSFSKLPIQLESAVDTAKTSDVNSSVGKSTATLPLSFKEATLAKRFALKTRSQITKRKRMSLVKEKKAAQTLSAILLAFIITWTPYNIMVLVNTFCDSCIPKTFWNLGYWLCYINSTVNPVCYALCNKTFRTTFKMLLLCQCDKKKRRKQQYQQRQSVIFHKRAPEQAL
T9 sequence (Q01959 whole entry): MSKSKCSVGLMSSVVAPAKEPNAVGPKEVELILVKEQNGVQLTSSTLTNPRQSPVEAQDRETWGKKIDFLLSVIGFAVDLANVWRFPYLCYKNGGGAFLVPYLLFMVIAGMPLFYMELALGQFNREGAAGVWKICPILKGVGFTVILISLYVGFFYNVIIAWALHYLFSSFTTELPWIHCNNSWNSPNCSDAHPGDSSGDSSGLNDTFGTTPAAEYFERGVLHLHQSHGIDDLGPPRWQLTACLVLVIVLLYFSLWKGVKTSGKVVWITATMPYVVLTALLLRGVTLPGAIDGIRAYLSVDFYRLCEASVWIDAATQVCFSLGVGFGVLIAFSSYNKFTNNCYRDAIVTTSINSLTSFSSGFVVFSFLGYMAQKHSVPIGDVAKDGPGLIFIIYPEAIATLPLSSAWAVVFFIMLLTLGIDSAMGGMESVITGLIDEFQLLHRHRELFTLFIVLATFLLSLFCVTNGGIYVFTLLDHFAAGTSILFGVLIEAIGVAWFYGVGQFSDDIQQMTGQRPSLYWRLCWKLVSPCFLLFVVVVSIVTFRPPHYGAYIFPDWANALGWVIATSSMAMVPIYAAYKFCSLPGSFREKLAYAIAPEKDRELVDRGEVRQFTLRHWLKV
T6 sequence (P34969 whole entry): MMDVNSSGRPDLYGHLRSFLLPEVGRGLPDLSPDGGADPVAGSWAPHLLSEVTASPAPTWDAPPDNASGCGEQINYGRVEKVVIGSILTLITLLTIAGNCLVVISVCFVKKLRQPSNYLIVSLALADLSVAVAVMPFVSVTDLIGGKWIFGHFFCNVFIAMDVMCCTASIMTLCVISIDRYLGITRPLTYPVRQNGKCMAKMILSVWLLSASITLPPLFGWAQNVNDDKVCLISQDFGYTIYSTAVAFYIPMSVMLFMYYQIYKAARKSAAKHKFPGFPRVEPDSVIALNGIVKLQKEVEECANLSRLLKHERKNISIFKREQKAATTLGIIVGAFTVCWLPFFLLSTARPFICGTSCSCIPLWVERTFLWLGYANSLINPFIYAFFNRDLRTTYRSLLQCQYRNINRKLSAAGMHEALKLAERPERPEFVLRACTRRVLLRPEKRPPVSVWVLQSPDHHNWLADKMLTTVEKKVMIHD
T5 sequence (P28222 whole entry): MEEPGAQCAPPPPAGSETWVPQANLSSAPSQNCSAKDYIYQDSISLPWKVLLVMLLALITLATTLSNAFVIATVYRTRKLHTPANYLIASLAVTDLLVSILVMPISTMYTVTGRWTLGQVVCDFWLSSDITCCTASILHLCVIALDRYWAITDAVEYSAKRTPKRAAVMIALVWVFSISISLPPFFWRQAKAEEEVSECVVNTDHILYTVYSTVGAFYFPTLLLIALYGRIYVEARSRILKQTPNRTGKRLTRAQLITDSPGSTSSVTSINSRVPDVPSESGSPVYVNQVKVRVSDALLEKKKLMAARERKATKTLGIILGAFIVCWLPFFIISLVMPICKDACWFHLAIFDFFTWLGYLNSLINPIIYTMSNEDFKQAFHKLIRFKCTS
T7 sequence (P35367 whole entry): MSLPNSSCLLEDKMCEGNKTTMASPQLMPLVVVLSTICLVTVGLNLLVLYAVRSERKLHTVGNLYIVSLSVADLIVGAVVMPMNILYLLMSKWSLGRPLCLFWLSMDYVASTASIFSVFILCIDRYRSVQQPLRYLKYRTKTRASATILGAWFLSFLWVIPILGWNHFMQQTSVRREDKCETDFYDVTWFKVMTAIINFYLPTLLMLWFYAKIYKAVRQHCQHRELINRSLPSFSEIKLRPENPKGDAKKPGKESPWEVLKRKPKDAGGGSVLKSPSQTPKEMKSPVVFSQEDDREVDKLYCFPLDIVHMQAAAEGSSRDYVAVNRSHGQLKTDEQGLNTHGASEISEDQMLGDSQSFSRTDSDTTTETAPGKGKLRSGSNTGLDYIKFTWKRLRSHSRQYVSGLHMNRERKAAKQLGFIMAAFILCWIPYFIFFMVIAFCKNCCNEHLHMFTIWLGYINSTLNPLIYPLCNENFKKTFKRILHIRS

## CCCCNc1ncc2c(-c3ccc(CN4CCN(C)CC4)cc3)cn([C@H]3CC[C@H](O)CC3)c2n1 [UNC2025C, UNC2025]
[1]
  Inhibition 1: 9.39%
  Inhibition 2: -18.53%
  Inhibition 3: 19.05%
  Inhibition 4: 31.46%
[1]; mean of Inhibition 1-4
  Mean %: 10.34%
[2]
  Inhibition 1: 58.8%
  Inhibition 2: 42.24%
  Inhibition 3: 30.2%
  Inhibition 4: 36.41%
[2]; mean of Inhibition 1-4
  Mean %: 41.91%
[3]
  Inhibition 1: -7.29%
  Inhibition 2: -5.9%
  Inhibition 3: -6.87%
  Inhibition 4: 2.81%
[3]; mean of Inhibition 1-4
  Mean %: -4.31%
[4]
  Inhibition 1: 36.84%
  Inhibition 2: 35.2%
  Inhibition 3: 22.04%
  Inhibition 4: 12.62%
[4]; mean of Inhibition 1-4
  Mean %: 26.68%
[5]
  Inhibition 1: 31.06%
  Inhibition 2: 11.01%
  Inhibition 3: 10.42%
  Inhibition 4: 12.97%
[5]; mean of Inhibition 1-4
  Mean %: 16.37%
[6]
  Inhibition 1: 13.62%
  Inhibition 2: -19.4%
  Inhibition 3: -17.29%
  Inhibition 4: -17.42%
[6]; mean of Inhibition 1-4
  Mean %: -10.12%
[7]
  Inhibition 1: 34.93%
  Inhibition 2: 33.32%
  Inhibition 3: 29.49%
  Inhibition 4: 24.93%
[7]; mean of Inhibition 1-4
  Mean %: 30.67%
[8]
  Inhibition 1: 11.35%
  Inhibition 2: 35.98%
  Inhibition 3: 21.68%
  Inhibition 4: 26.58%
[8]; mean of Inhibition 1-4
  Mean %: 23.9%
[9]
  Inhibition 1: 56.29%
  Inhibition 2: 47.54%
  Inhibition 3: 58.45%
  Inhibition 4: 64.82%
[9]; mean of Inhibition 1-4
  Mean %: 56.78%
